In ChEMBL document CHEMBL1158023, “Sideroxylonal C, a new inhibitor of human plasminogen activator inhibitor type-1, from the flowers of Eucalyptus albens” (J Nat Prod, 1999):

molecular target: Plasminogen activator inhibitor 1 (Homo sapiens, UniProt P05121); test: Inhibition of human PAI1 using tissue type plasminogen activator substrate by chromogenic absorbance at 405 nm
Sequence (P05121 whole entry): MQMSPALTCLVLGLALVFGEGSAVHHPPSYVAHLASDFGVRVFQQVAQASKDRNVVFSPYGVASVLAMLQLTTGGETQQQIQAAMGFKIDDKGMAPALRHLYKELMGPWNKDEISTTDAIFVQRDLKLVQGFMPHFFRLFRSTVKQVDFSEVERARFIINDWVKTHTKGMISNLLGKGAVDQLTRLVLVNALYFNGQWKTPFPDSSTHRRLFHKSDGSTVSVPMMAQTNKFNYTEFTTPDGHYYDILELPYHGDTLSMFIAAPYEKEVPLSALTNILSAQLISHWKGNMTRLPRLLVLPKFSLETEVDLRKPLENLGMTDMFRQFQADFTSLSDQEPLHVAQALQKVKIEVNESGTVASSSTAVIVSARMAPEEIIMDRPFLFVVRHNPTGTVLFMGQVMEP

Structure (SMILES)	IC50
CC(C)CC(=O)c1c(O)c(C=O)c2c(c1O)C[C@H]1C[C@H](C(C)C)C=C[C@@]1(C)O2 [EUGLOBAL IIC]	700 µM
CC(C)C[C@@H]1c2c(O)c(C=O)c(O)c(C=O)c2O[C@@H](c2c(O)c(C=O)c(O)c(C=O)c2O)[C@@H]1C(C)C [SIDEROXYLONAL A]	3.3 µM
CC(C)C[C@@H]1c2c(O)c(C=O)c(O)c(C=O)c2O[C@@H](c2c(O)c(C=O)c(O)c(C=O)c2O)[C@H]1C(C)C [SIDEROXYLONAL B]	5.3 µM
CC(C)C[C@H]1c2c(O)c(C=O)c(O)c(C=O)c2O[C@@H](c2c(O)c(C=O)c(O)c(C=O)c2O)[C@@H]1C(C)C [SIDEROXYLONAL C]	4.7 µM

The next lines start with the values.

IC50	Structure (SMILES)
138 µM	CC(C)C[C@@H]1c2c(O)c(C=O)c(O)c(C=O)c2O[C@]2(C)C=C[C@@H](C(C)C)C[C@H]12 [EUGLOBAL IA2]
152 µM	CC(C)C[C@@H]1C[C@@]2(CC[C@@H]3C[C@H]2C3(C)C)Oc2c(C=O)c(O)c(C=O)c(O)c21 [ROBUSTADIAL A]
